Test results: paper PMC9573696, “Experimental Examination of Solubility and Lipophilicity as Pharmaceutically Relevant Points of Novel Bioactive Hybrid Compounds” (Molecules, 2022)
≈ marks a conversion by molar mass, not a printed value. Marks after values point to notes of the source that are not given here.

Tests used:
[1] = system: C. parapsilosis ATCC 22019; experiment: In vitro antifungal activity, microbroth dilution (MIC); type: cell-based; settings: C. parapsilosis ATCC 22019
Procedure, shortened: (§1)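 MICs were determined by CLSI microbroth dilution, with fluconazole as the reference drug. Plates were incubated at 35 °C for 24 h and growth was scored visually against a sample-free reference culture. Each test was run in triplicate.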

C. utilis 84 = experiment: as above; type: cell-based; settings: C. utilis 84
Procedure, shortened: as §1

C. glabrata 61L = experiment: as above; type: cell-based; settings: C. glabrata 61L
Procedure, shortened: as §1

[2] = Apparent thermodynamic functions of dissolution (van't Hoff); type: physicochemical; settings: Thm = 302.98 K
Excerpt: The dissolution of the new hybrids was characterized based on apparent thermodynamic parameters obtained from temperature dependences of solubility of the studied compounds in the selected solvents (Figure 6). […] The van’t Hoff enthalpy of dissolution can be expressed as the inclination of a tangent to a solubility curve plotted as lnx vs. (1/T − 1/Thm) by Equation (6): (6) ΔHsolo=−R(∂lnx/∂(1/T−1/Thm))=−R⋅slope where R = 8.314 J⋅K^−1·mol^−1 is the universal gas constant. Thm = 302.98 K denotes the mean harmonic temperature, which was calculated by Equation (7):(7) Thm=n/∑i=1n1/Ti where n represented the number of experimental temperatures. The apparent standard Gibbs energy was evaluated by Equation (8):(8) ΔGsolo=−RThm×intersept
The apparent standard solution entropies were obtained from the well-known relationship:(9) ΔSsolo=ΔHsolo−ΔGsolo/Thm
The calculated apparent thermodynamic solubility functions of dissolution (Gibbs energy, enthalpy, and entropy) at standard temperature 298.15 K for hybrid compounds were collected in Table 4.

[3] = Equilibrium (thermodynamic) solubility, shake-flask method; type: physicochemical; settings: for Solubility S × 10^2 / Solubility x × 10^3: 1-Octanol; for Solubility S × 10^2 / Solubility x × 10^3 / Solubility S × 10^4 / Solubility x × 10^5 / Solubility S × 10^5 / Solubility x × 10^6: amorphous state; for Solubility S × 10^4 / Solubility x × 10^5: Buffer pH 2.0; for Solubility S × 10^5 / Solubility x × 10^6: Buffer pH 7.4
Excerpt: The experimental solubility values of hybrids in the selected solvents within the temperature range of 293.15–313.15 K expressed in molarity are summarized in Table 2. The comparative analysis of the reference values of the solubility of compounds I–III at the standard temperature of 298.15 K is given as a histogram in Figure 3.
Shake-flask method as “gold standard” was used for determination thermodynamic solubility synthesized compounds in buffer solutions (pH 2.0 and 7.4) and 1-octanol in the temperature range of 293.15–313.15 K with a step of 5 degrees at atmospheric pressure. Excessive amounts of compound were added to glass vials c 12 mL of selected solvent. The heterogeneous system is closed with a lid and vigorously stirred at the selected temperature in an air thermostat with a stirring device until the solubility equilibrium has been reached. The time required for establishing a constant value of the solution concentration was determined from the solubility kinetic dependences and averaged 2 days. The equilibrated solutions were first survived to aim sedimentation of solid phase during 10 h, then centrifuged at 20,000 rpm for 30 min at specific temperatures, and then quickly filtered using a syringe equipped with a hydrophilic filter Millex-GV 0.22 µm (Ireland). Concentration of saturated solution was measured using spectrophotometer Cary-50 (Varian, USA) with an accuracy of 2–4%. The absorbances of compounds studied were measured at wavelengths 332 and 334 nm in buffer solutions and 1-octanol, respectively. If necessary, an aliquot was diluted with an appropriate solvent. The final pH of the saturated buffers was monitored. The solubility of compounds in each solvent was determined by repeating the procedure three times.
Mole fraction concentration was calculated from solubility value S expressed in mol∙L^−1 using Equation (10):(10) x=M2S/S(M2−M1)+1000ρ, where M1 and M2 are the molar masses of solute and solvent, respectively, and ρ (g∙cm^−3) is the density of the pure solvents. The mole fraction solubilities for buffer solutions were calculated taking into account the buffer compositions. The used values of densities are given in Table S6 in Supplementary Material.

[4] = Thermodynamic functions of transfer 1-octanol/buffer pH 7.4; type: physicochemical; settings: 298.15 K
Method: The temperature variation of the partition coefficient provides enthalpic and entropic contributions to the free energy of transfer. The thermodynamic transfer functions for hybrids I–III in the 1-octanol/buffer pH 7.4 system were calculated by Equations (12)–(16) and are summarized in Table 6. The standard Gibbs energy values for all the compounds are negative. Therefore, the transfer from the aqueous medium to the organic phase within the studied temperature range is thermodynamically favourable and spontaneous. The standard transfer enthalpies of all the studied compounds are positive, which means the process is endothermic. Energy is consumed during the transfer to overcome the hydrophobic effects in water (destruction of the molecule solvate shell structure), destruction of the solvent–solute interactions in the aqueous medium and creation of a cavity in the organic phase where the solute molecules can enter.
The standard change in Gibbs free energy of transfer (∆trG^o) from the buffer to the organic phase was calculated by Equation (14):∆trG^o = −RTlnP*o/b(14)
The standard change entropy of transfer (∆trS^o) is determined as follows:∆trS^o = (∆trH^o − ∆trG^o)/T(15)

## O=c1c2sc(=S)n(-c3ccc(Cl)cc3)c2ncn1CCCN1CCN(CC(O)(Cn2cncn2)c2ccc(F)cc2F)CC1 (centres unmarked) [III, 6-[3-[4-[2-(2,4-difluorophenyl)-2-hydroxy-3-(1H-1,2,4-triazol-1-yl)propyl]-1-piperazinyl]propyl]-2,3-dihydro-3-(4-chlorophenyl)-2-thioxo-thiazolo[4,5-d]pyrimidin-7(6H)-one]
[1]; MIC ratio
  advantage over fluconazole: 8 fold
[1]; Lodderomyces parapsilosis, ATCC22019, 35 °C, 24 h, read-out: MIC
  MIC: 0.25 µg/mL (≈ 0.379 µM)
C. utilis 84
  activity relative to fluconazole: comparable
C. utilis 84; Williopsis jadinii, 35 °C, 24 h, read-out: MIC
  MIC: 2 µg/mL (≈ 3.03 µM)
C. glabrata 61L
  MIC relative to the reference value (fluconazole): four times less
C. glabrata 61L; Nakaseomyces glabratus, 35 °C, 24 h, read-out: MIC
  MIC: 2 µg/mL (≈ 3.03 µM)
[2]; 1-Octanol
  TΔSsolo: -0.22 kcal/mol
  ΔGsolo: 3.68 ± 0.072 kcal/mol
  ΔHsolo: 3.47 ± 0.024 kcal/mol
  ΔSsolo: −3.1 ± 0.2 J·mol^−1·K^−1
[2]; Buffer pH 2.0
  TΔSsolo: -4.59 kcal/mol
  ΔGsolo: 6.69 ± 0.096 kcal/mol
  ΔHsolo: 2.1 ± 0.024 kcal/mol
  ΔSsolo: −64.4 ± 3.8 J·mol^−1·K^−1
[2]; Buffer pH 7.4
  TΔSsolo: -2.87 kcal/mol
  ΔGsolo: 8.05 ± 0.17 kcal/mol
  ΔHsolo: 5.19 ± 0.048 kcal/mol
  ΔSsolo: −40.3 ± 2.3 J·mol^−1·K^−1
[3]; 293.15 K
  Solubility S × 10^2: 1.1196 mol∙L^−1 (printed as S × 10^2)
  Solubility x × 10^3: 1.7767 mol. frac. (printed as x × 10^
  Solubility S × 10^4: 6.3622 mol∙L^−1 (printed as S × 10^4)
  Solubility x × 10^5: 1.1474 mol. frac. (printed as x × 10^
  Solubility S × 10^5: 5.8572 mol∙L^−1 (printed as S × 10^5)
  Solubility x × 10^6: 1.0651 mol. frac. (printed as x × 10^
[3]; 298.15 K
  Solubility S × 10^2: 1.2269 mol∙L^−1 (printed as S × 10^2)
  Solubility x × 10^3: 1.9566 mol. frac. (printed as x × 10^
  Solubility S × 10^4: 6.7826 mol∙L^−1 (printed as S × 10^4)
  Solubility x × 10^5: 1.2247 mol. frac. (printed as x × 10^
  Solubility S × 10^5: 6.7347 mol∙L^−1 (printed as S × 10^5)
  Solubility x × 10^6: 1.2262 mol. frac. (printed as x × 10^
[3]; 303.15 K
  Solubility S × 10^2: 1.3464 mol∙L^−1 (printed as S × 10^2)
  Solubility x × 10^3: 2.1577 mol. frac. (printed as x × 10^
  Solubility S × 10^4: 7.1958 mol∙L^−1 (printed as S × 10^4)
  Solubility x × 10^5: 1.3013 mol. frac. (printed as x × 10^
  Solubility S × 10^5: 7.7877 mol∙L^−1 (printed as S × 10^5)
  Solubility x × 10^6: 1.4201 mol. frac. (printed as x × 10^
[3]; 308.15 K
  Solubility S × 10^2: 1.4730 mol∙L^−1 (printed as S × 10^2)
  Solubility x × 10^3: 2.3729 mol. frac. (printed as x × 10^
  Solubility S × 10^4: 7.5805 mol∙L^−1 (printed as S × 10^4)
  Solubility x × 10^5: 1.3731 mol. frac. (printed as x × 10^
  Solubility S × 10^5: 8.9503 mol∙L^−1 (printed as S × 10^5)
  Solubility x × 10^6: 1.6349 mol. frac. (printed as x × 10^
[3]; 313.15 K
  Solubility S × 10^2: 1.6045 mol∙L^−1 (printed as S × 10^2)
  Solubility x × 10^3: 2.5979 mol. frac. (printed as x × 10^
  Solubility S × 10^4: 7.9724 mol∙L^−1 (printed as S × 10^4)
  Solubility x × 10^5: 1.4468 mol. frac. (printed as x × 10^
  Solubility S × 10^5: 10.2665 mol∙L^−1 (printed as S × 10^5)
  Solubility x × 10^6: 1.8788 mol. frac. (printed as x × 10^
[3]; 25 °C, organic solvent or mixture, thermodynamic from solid, 1-octanol, text values match 298.15 K, read-out: Solubility S in the alcohol (1-octanol)
  solubility at 2 days: 12.3 mM (≈ 8110 µg/mL)
[4]
  T∆trS^o: 5.81 ± 0.239 kcal/mol
  ∆trG^o: -3.54 ± 0.048 kcal/mol
  ∆trH^o: 2.27 ± 0.024 kcal/mol
  ∆trS^o: 81.5 ± 1.5 J·mol^−1·K^−1
